Where “and” joins values, the source holds several entries; their conditions need not be identical. Equal values may be shown once.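 The compound was tested at five concentrations on cells cultured in 96-well plates, with a 48-hour exposure period. GI50 is the concentration that inhibits growth by half. At the TGI there is no net growth.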
How the values were obtained:
Test in all cases: NCI anticancer screen, dose series, 48 h
[1] = tested on: LXFL 529 NSCLC
[2] = tested on: DMS 273 small cell lung
[3] = tested on: SNB-78 CNS
[4] = tested on: DU-145 prostate
[5] = tested on: MDA-MB-435
[6] = tested on: T-47D breast
[7] = tested on: PC-3 prostate
[8] = tested on: NCI/ADR-RES ovarian
[9] = tested on: MDA-MB-231 breast

Row | Structure (SMILES) | TGI [1] [µM] | TGI [2] [µM] | TGI [3] [µM] | GI50 [4] | TGI [4] | GI50 [5] | TGI [5] | GI50 [6] | TGI [6] | GI50 [7] | TGI [7] | GI50 [8] | TGI [8] | GI50 [9] | TGI [9]
1 | CC1=C(O)C(=O)C2C(=O)C1C(C)C2c1ccc(Cl)cc1 (configuration not stated) | > 100 | > 100 | > 100 | – | – | – | – | – | – | – | – | – | – | – | –
2 | CC(C)C1CC(O)O[C@@H]([C@@H](C)[C@H]2CC(=O)[C@@H]3[C@@H]4[C@@H](O)[C@H](O)[C@H]5[C@@H](O)[C@H](O)CC[C@]5(C)[C@H]4CC[C@]23C)C1 (some centres not stated) | > 100 | > 100 | > 100 | – | – | – | – | – | – | – | – | – | – | – | –
3 | O=C1C2=C(c3ccccc31)C(c1ccccc1)NC(=S)N2 (configuration not stated) | > 100 | > 100 | – | – | – | – | – | – | – | – | – | – | – | – | –
4 | N#C/C(=C\c1cccc(O)c1)C(N)=O | > 100 | > 100 | > 100 | – | – | – | – | – | – | – | – | – | – | – | –
5 | NC(=O)N1N=C2c3ccccc3SC[C@H]2[C@@H]1c1ccccc1 | 94.2 | – | 93.3 | – | – | – | – | – | – | – | – | – | – | – | –
6 | OCc1ccc(-c2nn(Cc3ccccc3)c3ccccc23)o1 | – | – | – | 16.6 µM and 17.8 µM | 36.9 µM and 43.8 µM | 17.2 µM and 18.7 µM | 40.8 µM and 39.5 µM | 11.1 µM and 12.4 µM | 43.4 µM and 26.2 µM | 21.8 µM and 16.6 µM | 64.7 µM and 36 µM | 19.2 µM and 11.5 µM | 67.1 µM and 49.6 µM | 19.6 µM and 22.2 µM | 60.3 µM and 55.2 µM
7 | COc1ccc2c3c(c(=O)n(C)c2c1OC)C=CC(C)(C)O3 | – | – | – | – | > 100 µM | – | > 100 µM | – | > 100 µM | – | > 100 µM | – | 64.3 µM | – | 54 µM
8 | O=C(CSC(=S)N1CCOCC1)Nc1nc2c(s1)CCCC2 | > 100 | > 100 | > 100 | – | – | – | – | – | – | – | – | – | – | – | –
9 | Clc1nc(Cl)c2ncn(Cc3ccc(COc4cccc(OCc5ccc(Cn6cnc7c(Cl)nc(Cl)nc76)cc5)c4)cc3)c2n1 | – | – | – | 18.5 µM | 48.1 µM | 26.7 µM | > 100 µM | 21.5 µM | > 100 µM | 24.1 µM | > 100 µM | 39.5 µM | > 100 µM | 17.4 µM | 53.2 µM
10 | C=C1C(=O)O[C@H]2[C@H]1CC/C(COC(=O)N1CCC[C@H]1C(=O)Nc1ccc(OC)c(C(N)=O)c1O)=C\CC[C@@]1(C)O[C@@H]21 | – | – | – | 3.95 µM | 14.5 µM | 3.8 µM | 15.9 µM | 2.42 µM | 6.7 µM | 4.95 µM | 18.9 µM | 61 µM | > 100 µM | 2.68 µM | 10.1 µM
11 | CCOC(=O)NN1C(=O)C(=P(c2ccccc2)(c2ccccc2)c2ccccc2)C(C(=O)OCC)=C1C | > 100 | > 100 | > 100 | – | – | – | – | – | – | – | – | – | – | – | –
12 | CC12CCC(=O)C=C1CCC1C2C(O)CC2(C)C(c3csc(N)n3)CCC12 (configuration not stated) | – | – | – | – | > 100 µM | – | > 100 µM | – | > 100 µM | – | > 100 µM | – | > 100 µM | – | > 100 µM
13 | CC(=O)OCC1OC(n2ccc(=O)[nH]c2=O)C(OC(C)=O)C1OC(C)=O (configuration not stated) | – | – | – | > 100 µM | > 100 µM | > 100 µM | > 100 µM | > 100 µM | > 100 µM | > 100 µM | > 100 µM | > 100 µM | > 100 µM | > 100 µM | > 100 µM
14 | CCN(Cc1ccccc1OC)c1ccc(CO)c(Cl)c1 | – | – | – | 15.8 µM | 33.4 µM | 3.06 µM | 12.4 µM | 0.091 µM | 0.685 µM | 12.3 µM | 27.9 µM | 9.22 µM | 26.9 µM | 11.1 µM | 24.9 µM
15 | O=C1/C(=C/c2ccc(O)cc2)COc2ccc(-c3ccccc3)cc21 | – | – | – | 4.09 µM | 14.6 µM | 4.23 µM | 35.8 µM | 3.76 µM | 25.6 µM | 5.09 µM | > 63.9 µM | 10.9 µM | 53.9 µM | 8.25 µM | 27.3 µM
16 | Clc1nc(Cl)c2c(ncn2C/C=C\Cn2cnc3c(Cl)nc(Cl)nc32)n1 | – | – | – | 1.53 µM | 2.86 µM | 1.93 µM | 4.51 µM | 1.32 µM | 3.06 µM | 2.31 µM | 5.58 µM | 2.69 µM | 11.1 µM | 1.88 µM | 3.65 µM
17 | O=C(CCl)N1c2ccccc2Sc2c1ccc1ccccc21 | – | – | – | 3.32 µM | 10.8 µM | 2.41 µM | 7.06 µM | 2.19 µM | 6.07 µM | 1.74 µM | 4.45 µM | 2.74 µM | 6.55 µM | 2.09 µM | 4.36 µM
18 | C=C(C)C(=O)O[C@H]1[C@H]2[C@H](OC(=O)[C@H]2C)[C@H](O)[C@@H](C)[C@@H]2C=CC(=O)[C@]21C | – | – | – | – | 12.9 µM | – | 7.28 µM | – | 12.5 µM | – | 18.5 µM | – | 9.61 µM | – | 14 µM
19 | CN(C)CCCN1CCc2c([nH]c3ccccc23)C1c1cccnc1 (configuration not stated) | > 100 | > 100 | > 100 | – | – | – | – | – | – | – | – | – | – | – | –

Row | Structure (SMILES) | TGI [1] [µM] | TGI [2] [µM] | TGI [3] [µM] | GI50 [4] | TGI [4] | GI50 [5] | TGI [5] | GI50 [6] | TGI [6] | GI50 [7] | TGI [7] | GI50 [8] | TGI [8] | GI50 [9] | TGI [9]
20 | C[C@H]1[C@H](C)CC[C@]2(C(=O)O)CC[C@]3(C)C(=CC[C@@H]4[C@@]5(C)C/C(=C/c6cccnc6)[C@H](O)C(C)(C)[C@@H]5CC[C@]43C)[C@H]12 | – | – | – | 15.4 µM | > 100 µM | 27.6 µM | > 100 µM | 9.88 µM | > 100 µM | 6.35 µM | > 100 µM | 18.5 µM | 68.5 µM | 22.5 µM | 72.1 µM
21 | Nc1nc2c(c(=O)[nH]1)CN(c1ccc(S(N)(=O)=O)cc1)CN2 | – | – | – | – | > 100 µM | – | > 100 µM | – | > 100 µM | – | > 100 µM | – | > 100 µM | – | > 100 µM
22 | O=C(O)c1cc(=O)c2[nH]c3ccccc3c2s1 | > 100 | – | > 100 | – | – | – | – | – | – | – | – | – | – | – | –
23 | C[C@@H]1COCCN1c1cc(C2(S(C)(=N)=O)CC2)nc(-c2ccnc3[nH]ccc23)n1 (some centres not stated) | – | – | – | 3.06 µM | > 100 µM | 3.74 µM | 21.8 µM | 3.15 µM | 19.5 µM | 12.8 µM | 74.2 µM | 23.3 µM | 88.8 µM | 3.92 µM | 74.7 µM
24 | CN(C)CCOc1ccc2c(c1)C/C(=C/c1ncc([N+](=O)[O-])n1C)C2=O | – | – | – | – | 14 µM | – | 11.5 µM | – | 32.8 µM | – | 18.3 µM | – | 34.1 µM | – | 8.42 µM
25 | CC[C@H](CC#N)OC(=O)N[C@@H](C)c1cccc(NC(=O)Nc2ccc(-c3cnco3)c(OC)c2)c1 | – | – | – | 0.0672 µM | 39.3 µM | 0.0498 µM | 29 µM | 0.165 µM | 21.4 µM | 0.0741 µM | 31.4 µM | 4.87 µM | 62.2 µM | 0.204 µM | > 89.5 µM
26 | CCc1cc(O)c(Cl)c(C)c1Cl | – | – | – | – | 31.2 µM | – | 30.1 µM | – | > 100 µM | – | 40.2 µM | – | 50.1 µM | – | 81.1 µM
27 | CN(C)C(=S)N=Nc1c(O)[nH]c2ccccc12 | – | – | – | 0.955 µM | 11.4 µM | 0.757 µM | 17.3 µM | 0.404 µM | 10.2 µM | 0.566 µM | 29.7 µM | 0.334 µM | 2.15 µM | 1.11 µM | 17.6 µM
28 | Nc1cc(N)c(N)cc1N | – | – | – | 1.75 µM | 3.18 µM | 0.296 µM | 0.851 µM | 4.57 µM | 24.5 µM | 3.1 µM | > 100 µM | 2.24 µM | 7.1 µM | 5.02 µM | 29.4 µM
29 | NNC(=O)CCC(=O)NC1C2CC3CC(C2)CC1C3 (configuration not stated) | > 100 | > 100 | > 100 | – | – | – | – | – | – | – | – | – | – | – | –
30 | COc1ccc(O)c(C#N)c1C#N | > 100 | > 100 | > 100 | – | – | – | – | – | – | – | – | – | – | – | –
31 | CC(C)NC(=O)OCCS(=O)c1c(Cl)c(Cl)nn1C (configuration not stated) | – | – | – | – | > 100 µM | – | 56.3 µM | – | > 100 µM | – | > 100 µM | – | > 100 µM | – | 70.7 µM
32 | CN(CCOc1ccc(C#N)cc1)CCOc1ccc(C#N)cc1 | – | – | – | 90 µM | > 100 µM | 78.8 µM | > 100 µM | > 100 µM | > 100 µM | 41.6 µM | > 100 µM | 43.8 µM | > 100 µM | > 100 µM | > 100 µM
33 | CCCCN(Cc1ccc(F)cc1)c1ccc(CO)c(Cl)c1 | – | – | – | 17 µM | 31.3 µM | 17.6 µM | 35.1 µM | 1.27 µM | 10.2 µM | 13.8 µM | 28.4 µM | 14.1 µM | 29.3 µM | 14.8 µM | 29 µM
34 | CC(=O)O[C@@H]1CC2C(C)(C)CCCC2(C)C2=C1C(=O)C(C(C)C)=CC2=O (some centres not stated) | – | – | – | 1.09 µM | 2.48 µM | 0.481 µM | 1.93 µM | 1.49 µM | 7.31 µM | 2.45 µM | 12.9 µM | 2.96 µM | > 100 µM | 0.657 µM | 3.13 µM
35 | CC(=O)c1cc([N+](=O)[O-])ccc1OCC(=O)O | > 100 | > 100 | > 100 | – | – | – | – | – | – | – | – | – | – | – | –
36 | COc1cc(-c2cn(-c3ccc(Cl)cc3)c(C)c2C(=O)C(F)(F)F)cc(OC)c1OC | – | – | – | > 100 µM | > 100 µM | > 100 µM | > 100 µM | 6.95 µM | > 100 µM | 13.6 µM | > 100 µM | > 100 µM | > 100 µM | > 100 µM | > 100 µM
37 | CC(=O)n1c2ccccc2c2nc3nc(Oc4ccc(C)cc4)c4ccccc4c3cc21 | > 100 | > 100 | > 100 | – | – | – | – | – | – | – | – | – | – | – | –

Reference: PubChem BioAssay (NCI)
